Measured values published in US11964960B2 (Cornell University, priority 2018, dated 2024).
pIC50: −log10 of the molar value. Counter-ions that a name gives are not always drawn.

Target: T1, S1P2 (Homo sapiens, UniProt O95136)
T1 construct: Flag; expressed in transfected cells; host or cells: Chinese hamster ovary (CHO) cells, doxycycline-inducible (CHO-S1P2-FL / CHO-S1PR2 FL)
Assay: GLISA RhoA activation - antagonist assay
Format: cell-based
Conditions: CHO-S1P2-FL cells; for inhibition at 1 µM: 1 μM compound; for pIC50: 1 hour compound incubation, then for 5 min
Experimental: GLISA RhoA Activation—Antagonist Assay
GLISA assays were performed using RhoA (BK124) activation kit purchased from Cytoskeleton Inc., Denver, CO Doxycycline-inducible Flag-tag S1P2 expressing Chinese hamster ovary (CHO) cells (CHO-S1P2-FL) were seeded in a 6-well plate, 1.5×10^5 cells per well. Cells were stimulated with […] of Doxycycline to induce S1P2 expression in serum free IMDM media with 0.1% BSA/PBS. Following day, cells were stimulated with the compounds described herein (1 nM-10 μM) or 1 μM JTE-013 for 1 hour at 37° C. Following compound incubation, cells were washed with PBS×3 and induced with 100 nM […] for 5 min. […] Protein concentration was examined using GLISA—Precision Red Advanced Protein assay reagent as described in assay manual. Lysates were immobilized on GTP-bound capture plate and GLISA assay was performed based on manufacture recommendations as reported previously.

T1 sequence (O95136 whole entry, species assumed): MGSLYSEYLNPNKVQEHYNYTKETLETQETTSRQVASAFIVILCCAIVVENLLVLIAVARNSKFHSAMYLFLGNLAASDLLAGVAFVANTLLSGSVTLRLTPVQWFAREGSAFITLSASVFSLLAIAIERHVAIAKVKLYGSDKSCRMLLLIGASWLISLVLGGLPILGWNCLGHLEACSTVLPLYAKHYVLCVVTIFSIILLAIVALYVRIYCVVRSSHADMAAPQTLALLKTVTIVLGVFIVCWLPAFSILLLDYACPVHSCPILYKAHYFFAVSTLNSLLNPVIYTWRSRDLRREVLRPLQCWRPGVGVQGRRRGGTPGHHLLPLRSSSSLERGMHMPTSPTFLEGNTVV

Row | inhibition at 1 µM [%] | pIC50 | SMILES
1 | 57 | 5.83 | Cc1cc(C(=O)Cn2cc(I)ccc2=O)c(C)n1Cc1ccccc1 [Compound 2, 1-(2-(1-benzyl-2,5-dimethyl-1H-pyrrol-3-yl)-2-oxoethyl)-5-iodopyridin-2(1H)-one]
2 | 86 | 7.59 | Cc1cc(C(=O)C(C)n2cc(Br)ccc2=O)c(C)n1Cc1ccccc1 (centres unmarked) [Compound 4, 1-(1-(1-benzyl-2,5-dimethyl-1H-pyrrol-3-yl)-1-oxopropan-2-yl)-5-bromopyridin-2(1H)-one]
3 | 48 | – | Cc1nc(Cn2c(C)cc(C(=O)C(C)n3cc(Br)ccc3=O)c2C)no1 (centres unmarked) [Compound 5, 5-bromo-1-(1-(2,5-dimethyl-1-((5-methyl-1,2,4-oxadiazol-3-yl)methyl)-1H-pyrrol-3-yl)-1-oxopropan-2-yl)pyridin-2(1H)-one]
4 | 29 | – | Cc1noc(Cn2c(C)cc(C(=O)C(C)n3cc(Br)ccc3=O)c2C)n1 (centres unmarked) [Compound 6, 5-bromo-1-(1-(2,5-dimethyl-1-((3-methyl-1,2,4-oxadiazol-5-yl)methyl)-1H-pyrrol-3-yl)-1-oxopropan-2-yl)pyridin-2(1H)-one]
5 | 58 | – | Cc1cc(C(=O)C(C)n2cc(Br)ccc2=O)c(C)n1Cc1ncccn1 (centres unmarked) [Compound 7, 5-bromo-1-(1-(2,5-dimethyl-1-(pyrimidin-2-ylmethyl)-1H-pyrrol-3-yl)-1-oxopropan-2-yl)pyridin-2(1H)-one]
6 | 20 | – | Cc1cc(C(=O)C(C)n2cc(Br)ccc2=O)c(C)n1Cc1cnn(C)c1 (centres unmarked) [Compound 8, 5-bromo-1-(1-(2,5-dimethyl-1-((1-methyl-1H-pyrazol-4-yl)methyl)-1H-pyrrol-3-yl)-1-oxopropan-2-yl)pyridin-2(1H)-one]
7 | 32 | – | Cc1cc(Cn2c(C)cc(C(=O)C(C)n3cc(Br)ccc3=O)c2C)no1 (centres unmarked) [Compound 9, 5-bromo-1-(1-(2,5-dimethyl-1-((5-methylisoxazol-3-yl)methyl)-1H-pyrrol-3-yl)-1-oxopropan-2-yl)pyridin-2(1H)-one]
8 | 39 | – | Cc1cc(C(=O)C(C)n2cc(Br)ccc2=O)c(C)n1CC1CCOCC1 (centres unmarked) [Compound 10, 5-bromo-1-(1-(2,5-dimethyl-1-((tetrahydro-2H-pyran-4-yl)methyl)-1H-pyrrol-3-yl)-1-oxopropan-2-yl)pyridin-2(1H)-one]
9 | 30 | – | Cc1cc(C(=O)C(C)n2cc(Br)ccc2=O)c(C)n1CC1CCCOC1 (centres unmarked) [Compound 11, 5-bromo-1-(1-(2,5-dimethyl-1-((tetrahydro-2H-pyran-3-yl)methyl)-1H-pyrrol-3-yl)-1-oxopropan-2-yl)pyridin-2(1H)-one]
10 | 41 | – | Cc1cc(C(=O)C(C)n2cc(Br)ccc2=O)c(C)n1Cc1ccn(C)n1 (centres unmarked) [Compound 12, 5-bromo-1-(1-(2,5-dimethyl-1-((1-methyl-1H-pyrazol-3-yl)methyl)-1H-pyrrol-3-yl)-1-oxopropan-2-yl)pyridin-2(1H)-one]
11 | 29 | – | Cc1cc(C(=O)C(C)n2cc(Br)ccc2=O)c(C)n1Cc1ccc(S(C)(=O)=O)cc1 (centres unmarked) [Compound 13, 5-bromo-1-(1-(2,5-dimethyl-1-(4-(methylsulfonyl)benzyl)-1H-pyrrol-3-yl)-1-oxopropan-2-yl)pyridin-2(1H)-one]
12 | 35 | – | Cc1cc(C(=O)C(C)n2cc(Br)ccc2=O)c(C)n1Cc1cccc(S(C)(=O)=O)c1 (centres unmarked) [Compound 14, 5-bromo-1-(1-(2,5-dimethyl-1-(3-(methylsulfonyl)benzyl)-1H-1-pyrrol-3-yl)-1-oxopropan-2-yl)pyridin-2(1H)-one]
13 | 70 | – | Cc1cc(C(=O)C(C)n2cc(Br)ccc2=O)c(C)n1Cc1cccc(C#N)c1 (centres unmarked) [Compound 15, 3-((3-(2-(5-bromo-2-oxopyridin-1(2H)-yl)propanoyl)-2,5-dimethyl-1H-pyrrol-1-yl)methyl)benzonitrile]
14 | 39 | – | Cc1cc(C(=O)C(C)n2cc(Br)ccc2=O)c(C)n1Cc1ccc(C#N)cc1 (centres unmarked) [Compound 16, 4-((3-(2-(5-bromo-2-oxopyridin-1(2H)-yl)propanoyl)-2,5-dimethyl-1H-pyrrol-1-yl)methyl)benzonitrile]
15 | 63 | – | Cc1cc(C(=O)C(C)n2cc(Br)ccc2=O)c(C)n1Cc1ccccc1C#N (centres unmarked) [Compound 17, 2-((3-(2-(5-bromo-2-oxopyridin-1(2H)-yl)propanoyl)-2,5-dimethyl-1H-pyrrol-1-yl)methyl)benzonitrile]
16 | 76 | – | Cc1cc(C(=O)C(C)n2cc(Br)ccc2=O)c(C)n1Cc1ccc(F)cc1 (centres unmarked) [Compound 18, 5-bromo-1-(1-(1-(4-fluorobenzyl)-2,5-dimethyl-1H-pyrrol-3-yl)-1-oxopropan-2-yl)pyridin-2(1H)-one]
17 | 44 | – | Cc1cc(C(=O)C(C)n2cc(Br)ccc2=O)c(C)n1Cc1ccccc1F (centres unmarked) [Compound 19, 5-bromo-1-(1-(1-(2-fluorobenzyl)-2,5-dimethyl-1H-pyrrol-3-yl)-1-oxopropan-2-yl)pyridin-2(1H)-one]

Row | inhibition at 1 µM [%] | pIC50 | SMILES
18 | 46 | – | Cc1cc(C(=O)C(C)n2cc(Br)ccc2=O)c(C)n1Cc1ccc(F)c(F)c1 (centres unmarked) [Compound 20, 5-bromo-1-(1-(1-(3,4-difluorobenzyl)-2,5-dimethyl-1H-pyrrol-3-yl)-1-oxopropan-2-yl)pyridn-2(1H)-one]
19 | 42 | – | Cc1cc(C(=O)C(C)n2cc(Br)ccc2=O)c(C)n1Cc1cccc(C(F)F)c1 (centres unmarked) [Compound 21, 5-bromo-1-(1-(1-(3-(difluoromethyl)benzyl)-2,5-dimethyl-1H-pyrrol-3-yl)-1-oxopropan-2-yl)pyridin-2(1H)-one]
20 | 73 | 6.10 | Cc1cc(C(=O)C(C)n2cc(Br)ccc2=O)c(C)n1Cc1cccc(Cl)c1 (centres unmarked) [Compound 22, 5-bromo-1-(1-(1-(3-chlorobenzyl)-2,5-dimethyl-1H-pyrrol-3-yl)-1-oxopropan-2-yl)pyridin-2(1H)-one]
21 | 69 | 6.53 | Cc1cc(C(=O)C(C)n2cc(Br)ccc2=O)c(C)n1Cc1cccc(C(=O)O)c1 (centres unmarked) [Compound 23, 3-((3-(2-(5-bromo-2-oxopyridin-1(2H)-yl)propanoyl)-2,5-dimethyl-1H-pyrrol-1-yl)metnyl)benzoic add]
22 | 73 | – | Cc1cc(C(=O)C(C)n2cc(Br)ccc2=O)c(C)n1Cc1cccnc1 (centres unmarked) [Compound 24, 5-bromo-1-(1-(2,5-dimethyl-1-(pyridin-3-ylmethyl)-1H-pyrrol-3-yl)-1-oxopropan-2-yl)pyridin-2(1H)-one]
23 | 39 | – | Cc1cc(C(=O)C(C)n2cc(Br)ccc2=O)c(C)n1Cc1ccncc1 (centres unmarked) [Compound 25, 5-bromo-1-(1-(2,5-dimethyl-1-(pyridin-4-ylmethyl)-1H-pyrrol-3-yl)-1-oxopropan-2-yl)pyridin-2(1H)-one]
24 | 55 | 6.71 | CC#Cc1ccc(=O)n(CC(=O)c2cc(C)n(Cc3ccccc3)c2C)c1 [Compound 26, 1-(2-(1-benzyl-2,5-dimethyl-1H-pyrrol-3-yl)-2-oxoethyl)-5-(prop-1-yn-1-yl)pyridin-2(1H)-one]
25 | 58 | – | Cc1cc(C(=O)Cn2cc(Br)ccc2=O)c(C)n1Cc1ccc(F)cc1 [Compound 28, 5-bromo-1-(2-(1-(4-fluorobenzyl)-2,5-dimethyl-1H-pyrrol-3-yl)-2-oxoethyl)pyridin-2(1H)-one]
26 | 64 | 6.23 | Cc1nc(C(=O)Cn2cc(Br)ccc2=O)c(C)n1Cc1ccc(F)cc1 [Compound 30, 5-bromo-1-(2-(1-(4-fluorobenzyl)-2,5-dimethyl-1H-imidazol-4-yl)-2-oxoethyl)pyridin-2(1H)-one]
27 | 69 | 6.60 | C#Cc1ccc(=O)n(CC(=O)c2cc(C)n(Cc3ccc(F)cc3)n2)c1 [Compound 31, 5-ethynyl-1-(2-(1-(4-fluorobenzyl)-5-methyl-1H-pyrazol-3-yl)-2-oxoethyl)pyridin-2(1H)-one]
28 | – | 6.85 | O=c1ccc(Br)cn1Cc1nccc2c1cnn2Cc1ccccc1 [Compound 130, 1-((1-Benzyl-1H-pyrazolo[4,3-c]pyridin-4-y)methyl)-5-bromopyridin-2(1H)-one hydrochloride]
29 | – | 7.24 | C#Cc1ccc(=O)n(Cc2nccc3c2cnn3Cc2ccccc2)c1 [Compound 131, 1-((1-benzyl-1H-pyrazolo[4,3-c]pyridin-4-yl)methyl)-5-ethynylpyridin-2(1H)one hydrochloride]
30 | – | < 5.00 | Cc1cc(C(=O)Cn2c(C)c(C#N)ccc2=O)c(C)n1Cc1ccccc1 [Example 44, 1-(2-(1-Benzyl-2,5-dimethyl-1H-pyrrol-3-yl)-2-oxoethyl)-2-methyl-6-oxo-1,6-dihydropyridine-3-carbonitrile]
31 | – | < 5.00 | Cc1cc(C(=O)Cn2cc(Cl)ccc2=O)c(C)n1Cc1ccccc1 [Example 45, 1-(2-(1-Benzyl-2,5-dimethyl-1H-pyrrol-3-yl)-2-oxoethyl)-5-chloropyridin-2(1H)-one]
32 | – | < 5.00 | Cc1cc(C(=O)Cn2cc(C(=O)O)ccc2=O)c(C)n1Cc1ccccc1 [Example 46, 1-(2-(1-Benzyl-2,5-dimethyl-1H-pyrrol-3-yl)-2-oxoethyl)-6-oxo-1,6-dihydropyridine-3-carboxylic Acid]
33 | – | < 5.00 | Cc1cc(C(=O)Cn2cc(C#N)ccc2=O)c(C)[nH]1 [Example 47, 1-(2-(2,5-Dimethyl-1H-pyrrol-3-yl)-2-oxoethyl)-6-oxo-1,6-dihydropyridine-3-carbonitrile]
34 | – | < 5.00 | Cc1cc(C(=O)C(Cc2ccc(-c3ccccc3)cc2)n2cc(C#N)ccc2=O)c(C)[nH]1 (centres unmarked) [Example 48, 1-(3-((1,1′-Biphenyl)-4-yl)-1-(2,5-dimethyl-1H-pyrrol-3-yl)-1-oxopropan-2-yl)-6-oxo-1,6-dihydropyridine-3-carbonitrile]
